Reference: PubChem BioAssay AID256 (DTP/NCI, 2004)
Several values for one entry are separate records, joined by “and”; a condition that tells them apart may be missing. Equal values may be shown once. Toxic doses and inconclusive results are not listed.

Test system: CD2F1 mice, L1210 leukemia ip, survival T/C
Assay: NCI In Vivo Anticancer Drug Screen. Data for tumor model L1210 Leukemia (intraperitoneal) in CD2F1 (CDF1) mice
Settings: higher = longer survival
Procedure, shortened: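 Ratio T/C, where T is the treated-group value and C the vehicle-dosed control value, from mice implanted with a transplantable tumor.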

[1] = endpoint: mean survival time, dose: 50.0 mg/kg/injection, schedule: Q01DX009 (ip), vehicle: saline with Tween-80
[2] = endpoint: mean survival time, dose: 100.0 mg/kg/injection, schedule: Q01DX009 (ip), vehicle: saline with Tween-80
[3] = endpoint: mean survival time, dose: 200.0 mg/kg/injection, schedule: Q01DX009 (ip), vehicle: saline with Tween-80
[4] = endpoint: mean survival time, dose: 100.0 mg/kg/injection, schedule: Q04DX003 (ip), vehicle: saline with Tween-80
[5] = endpoint: mean survival time, dose: 200.0 mg/kg/injection, schedule: Q04DX003 (ip), vehicle: saline with Tween-80
[6] = endpoint: mean survival time, dose: 400.0 mg/kg/injection, schedule: Q04DX003 (ip), vehicle: saline with Tween-80
[7] = endpoint: mean survival time, dose: 400.0 mg/kg/injection, schedule: Q01DX009 (ip), vehicle: saline with Tween-80
[8] = endpoint: mean survival time, dose: 100.0 mg/kg/injection, schedule: Q01DX001 (ip), vehicle: saline with Tween-80
[9] = endpoint: mean survival time, dose: 200.0 mg/kg/injection, schedule: Q01DX001 (ip), vehicle: saline with Tween-80
[10] = endpoint: mean survival time, dose: 200.0 mg/kg/injection, schedule: Q04DX002 (ip), vehicle: saline with Tween-80
[11] = endpoint: mean survival time, dose: 25.0 mg/kg/injection, schedule: Q01DX009 (ip), vehicle: saline
[12] = endpoint: mean survival time, dose: 50.0 mg/kg/injection, schedule: Q01DX009 (ip), vehicle: saline
[13] = endpoint: mean survival time, dose: 100.0 mg/kg/injection, schedule: Q01DX009 (ip), vehicle: saline
[14] = endpoint: mean survival time, dose: 400.0 mg/kg/injection, schedule: Q01DX001 (ip), vehicle: saline with Tween-80

## COC(=O)c1ncn(C2OC(COC(C)=O)C(OC(C)=O)C2OC(C)=O)c1C(=O)OC (centres undefined)
endpoint: mean survival time, dose: 12.5 mg/kg/injection, schedule: Q01DX005 (ip), vehicle: water
  T/C: 87 % of control
endpoint: mean survival time, dose: 25.0 mg/kg/injection, schedule: Q01DX005 (ip), vehicle: water
  T/C: 94 % of control
endpoint: mean survival time, dose: 50.0 mg/kg/injection, schedule: Q01DX005 (ip), vehicle: water
  T/C: 90 % of control
endpoint: mean survival time, dose: 100.0 mg/kg/injection, schedule: Q01DX005 (ip), vehicle: water
  T/C: 100 % of control
endpoint: mean survival time, dose: 200.0 mg/kg/injection, schedule: Q01DX005 (ip), vehicle: water
  T/C: 96 % of control

## Cc1ccc(NC(=O)Oc2ccc(C(C)(C)C)cc2Br)c(C)c1
[1]
  T/C: 101 % of control
[2]
  T/C: 96 % of control
[3]
  T/C: 116 % of control

## CC1(C(=O)O)CCOC1=O (centres undefined)
endpoint: mean survival time, dose: 100.0 mg/kg/injection, schedule: Q04DX002 (ip), vehicle: saline
  T/C: 102 % of control
endpoint: mean survival time, dose: 200.0 mg/kg/injection, schedule: Q04DX002 (ip), vehicle: saline
  T/C: 107 % of control

## C[N+](C)(C)/N=C/C=C/c1ccccc1
endpoint: mean survival time, dose: 12.5 mg/kg/injection, schedule: Q01DX009 (ip), vehicle: saline with Tween-80
  T/C: 104 % of control
endpoint: mean survival time, dose: 25.0 mg/kg/injection, schedule: Q01DX009 (ip), vehicle: saline with Tween-80
  T/C: 104 % of control
[1]
  T/C: 96 % of control and 107 % of control

## CCOC(=O)C(C(=O)OCC)C1CCS(=O)(=O)C1 (centres undefined)
[4]
  T/C: 95 % of control
[5]
  T/C: 97 % of control
[6]
  T/C: 95 % of control

## N=Cc1c(O)n(C2CCCCC2)c(=O)[nH]c1=O
[2]
  T/C: 98 % of control
[4]
  T/C: 93 % of control
[3]
  T/C: 94 % of control
[5]
  T/C: 93 % of control
[7]
  T/C: 98 % of control
[6]
  T/C: 91 % of control

## O=C(NC(NC(=O)c1ccc(Cl)cc1)C(Cl)(Cl)Cl)c1ccc(Cl)cc1
endpoint: mean survival time, dose: 25.0 mg/kg/injection, schedule: Q04DX003 (ip), vehicle: saline with Tween-80
  T/C: 98 % of control
endpoint: mean survival time, dose: 50.0 mg/kg/injection, schedule: Q04DX003 (ip), vehicle: saline with Tween-80
  T/C: 88 % of control
[4]
  T/C: 90 % of control

## CC(C)(O)C#CC#CC(C)(C)O
[8]
  T/C: 102 % of control
[9]
  T/C: 96 % of control

## COc1ccc(N=C(C)CC(C)=O)cc1
endpoint: mean survival time, dose: 100.0 mg/kg/injection, schedule: Q04DX002 (ip), vehicle: saline with Tween-80
  T/C: 98 % of control
[10]
  T/C: 95 % of control
endpoint: mean survival time, dose: 400.0 mg/kg/injection, schedule: Q04DX002 (ip), vehicle: saline with Tween-80
  T/C: 95 % of control

## N=C(N)SC1c2ccccc2-c2ccc(N)cc21 (centres undefined)
[11]
  T/C: 107 % of control
[12]
  T/C: 102 % of control
[13]
  T/C: 109 % of control
[4]
  T/C: 103 % of control

## Oc1ccc(Br)cc1/C=N/c1nc(-c2ccccc2)cs1.Oc1ccc(Br)cc1/C=N/c1nc(-c2ccccc2)cs1.[Cu]
endpoint: mean survival time, dose: 12.5 mg/kg/injection, schedule: Q01DX001 (ip), vehicle: saline
  T/C: 87 % of control
endpoint: mean survival time, dose: 25.0 mg/kg/injection, schedule: Q01DX001 (ip), vehicle: saline
  T/C: 100 % of control
endpoint: mean survival time, dose: 50.0 mg/kg/injection, schedule: Q01DX001 (ip), vehicle: saline
  T/C: 91 % of control
[9]
  T/C: 93 % of control

## C=CC[As](=O)(O)CCC
[11]
  T/C: 100 % of control
[12]
  T/C: 98 % of control
[2]
  T/C: 114 % of control
[13]
  T/C: 97 % of control

## O=C(Oc1ccc(=O)[nH]n1)c1ccccc1
endpoint: mean survival time, dose: 12.5 mg/kg/injection, schedule: Q04DX002 (ip), vehicle: saline with Tween-80
  T/C: 98 % of control
endpoint: mean survival time, dose: 25.0 mg/kg/injection, schedule: Q04DX002 (ip), vehicle: saline with Tween-80
  T/C: 94 % of control
endpoint: mean survival time, dose: 50.0 mg/kg/injection, schedule: Q04DX002 (ip), vehicle: saline with Tween-80
  T/C: 90 % of control and 94 % of control
[10]
  T/C: 87 % of control

## CC1CC(=O)OC2CC(C)(C)CC(=O)C12 (centres undefined)
[13]
  T/C: 104 % of control
endpoint: mean survival time, dose: 100.0 mg/kg/injection, schedule: Q04DX003 (ip), vehicle: saline sonified
  T/C: 98 % of control
endpoint: mean survival time, dose: 200.0 mg/kg/injection, schedule: Q01DX009 (ip), vehicle: saline
  T/C: 106 % of control
endpoint: mean survival time, dose: 200.0 mg/kg/injection, schedule: Q04DX003 (ip), vehicle: saline sonified
  T/C: 95 % of control
endpoint: mean survival time, dose: 400.0 mg/kg/injection, schedule: Q01DX009 (ip), vehicle: saline
  T/C: 104 % of control
endpoint: mean survival time, dose: 400.0 mg/kg/injection, schedule: Q04DX003 (ip), vehicle: saline sonified
  T/C: 95 % of control

## S=P(N1CC1)(N1CC1)N1CC1.[Cl-].[Cl-].[NH2-].[NH2-].[Pt+4]
endpoint: mean survival time, dose: 0.78 mg/kg/injection, schedule: Q01DX009 (ip), vehicle: Klucel (hydroxypropylcellulose) (HPC)
  T/C: 112 % of control and 101 % of control
endpoint: mean survival time, dose: 1.56 mg/kg/injection, schedule: Q01DX009 (ip), vehicle: Klucel (hydroxypropylcellulose) (HPC)
  T/C: 114 % of control and 115 % of control and 107 % of control
endpoint: mean survival time, dose: 3.13 mg/kg/injection, schedule: Q01DX009 (ip), vehicle: Klucel (hydroxypropylcellulose) (HPC)
  T/C: 153 % of control
endpoint: mean survival time, dose: 6.25 mg/kg/injection, schedule: Q01DX009 (ip), vehicle: Klucel (hydroxypropylcellulose) (HPC)
  T/C: 111 % of control

## O=C(NO)c1ccc(O)c(O)c1O
endpoint: mean survival time, dose: 25.0 mg/kg/injection, schedule: Q01DX009 (ip), vehicle: distilled water + Tween-80
  T/C: 110 % of control
endpoint: mean survival time, dose: 50.0 mg/kg/injection, schedule: Q01DX009 (ip), vehicle: distilled water + Tween-80
  T/C: 108 % of control
endpoint: mean survival time, dose: 100.0 mg/kg/injection, schedule: Q01DX009 (ip), vehicle: distilled water + Tween-80
  T/C: 116 % of control

## O=C(Cc1ccccc1)c1ccc(Cl)cc1
[8]
  T/C: 101 % of control
[9]
  T/C: 88 % of control
[14]
  T/C: 93 % of control

## CC(=O)/C(N=Nc1ccc(S(=O)(=O)c2ccc(N=N/C(C(C)=O)=C(/C)O)cc2)cc1)=C(\C)O
[2]
  T/C: 86 % of control
[3]
  T/C: 86 % of control
[7]
  T/C: 102 % of control

## CCOC(=O)C[N+](CC)(CC)CC
endpoint: mean survival time, dose: 100.0 mg/kg/injection, schedule: Q04DX003 (ip), vehicle: Klucel (hydroxypropylcellulose) (HPC)
  T/C: 96 % of control
endpoint: mean survival time, dose: 200.0 mg/kg/injection, schedule: Q04DX003 (ip), vehicle: Klucel (hydroxypropylcellulose) (HPC)
  T/C: 96 % of control
endpoint: mean survival time, dose: 400.0 mg/kg/injection, schedule: Q04DX003 (ip), vehicle: Klucel (hydroxypropylcellulose) (HPC)
  T/C: 93 % of control

## OCC(O)C1OC(SCc2ccccc2)C(O)C(O)C1O (centres undefined)
[4]
  T/C: 91 % of control
[5]
  T/C: 100 % of control
[6]
  T/C: 107 % of control

## O=C(O)c1cccc(C(=O)O)c1
[4]
  T/C: 95 % of control
[5]
  T/C: 102 % of control
[6]
  T/C: 102 % of control

## OC(CBr)C(O)CBr (centres undefined)
[1]
  T/C: 108 % of control
[12]
  T/C: 108 % of control
[8]
  T/C: 102 % of control
[2]
  T/C: 106 % of control
[13]
  T/C: 108 % of control
[4]
  T/C: 102 % of control
[9]
  T/C: 109 % of control
[5]
  T/C: 86 % of control

## CC12CCC(O)CC1=CCC1C2CCC2(C)C(O)CCC12 (centres undefined)
[8]
  T/C: 97 % of control
[9]
  T/C: 90 % of control
[14]
  T/C: 91 % of control

## O=CNc1cc2ccccc2c2ccc3ccccc3c12
[1]
  T/C: 94 % of control
[2]
  T/C: 94 % of control
[4]
  T/C: 89 % of control
[3]
  T/C: 97 % of control
[5]
  T/C: 89 % of control

## C[n+]1ccc(Cc2ccccc2)cc1
endpoint: mean survival time, dose: 12.5 mg/kg/injection, schedule: Q04DX002 (ip), vehicle: saline
  T/C: 104 % of control
endpoint: mean survival time, dose: 25.0 mg/kg/injection, schedule: Q04DX002 (ip), vehicle: saline
  T/C: 96 % of control
endpoint: mean survival time, dose: 50.0 mg/kg/injection, schedule: Q04DX002 (ip), vehicle: saline
  T/C: 102 % of control

## N/N=C(\C(=N\N)c1ccccc1)c1ccccc1
[4]
  T/C: 95 % of control
[5]
  T/C: 93 % of control
[6]
  T/C: 89 % of control

## N#Cc1ccc(CO)cc1Br
endpoint: mean survival time, dose: 100.0 mg/kg/injection, schedule: Q04DX003 (ip), vehicle: saline
  T/C: 97 % of control
endpoint: mean survival time, dose: 200.0 mg/kg/injection, schedule: Q04DX003 (ip), vehicle: saline
  T/C: 90 % of control
endpoint: mean survival time, dose: 400.0 mg/kg/injection, schedule: Q04DX003 (ip), vehicle: saline
  T/C: 92 % of control

## CO[C@@]12[C@@H]3N[C@@H]3CN1C1=C(C(=O)C(Nc3nc(C)c(C)s3)=C(C)C1=O)[C@@H]2COC(N)=O
endpoint: median survival time, dose: 1.5 mg/kg/injection, schedule: Q01DX001 (ip), vehicle: distilled water + Tween-80
  T/C: 98 % of control and 101 % of control
endpoint: median survival time, dose: 3.0 mg/kg/injection, schedule: Q01DX001 (ip), vehicle: distilled water + Tween-80
  T/C: 120 % of control and 101 % of control and 102 % of control
endpoint: median survival time, dose: 6.0 mg/kg/injection, schedule: Q01DX001 (ip), vehicle: distilled water + Tween-80
  T/C: 123 % of control and 101 % of control (2×)
endpoint: median survival time, dose: 12.0 mg/kg/injection, schedule: Q01DX001 (ip), vehicle: distilled water + Tween-80
  T/C: 98 % of control and 101 % of control
endpoint: median survival time, dose: 24.0 mg/kg/injection, schedule: Q01DX001 (ip), vehicle: distilled water + Tween-80
  T/C: 121 % of control and 102 % of control and 106 % of control
